# Results: PubChem BioAssay AID2060903 (Molecular Pharmacology Branch, DTP, NCI, 2025)
# Tested on: 377384-186-R-J1-PDC complex spheroid viability
# Experiment: Anticancer human tumor 377384-186-R-J1-PDC patient-derived pancreatic carcinoma cell line growth inhibition [RAS]
# Conditions: for IC50: curve of first compound; for viability, T/C: stronger effect = lower value
# In short: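 Tumour cells grown as complex spheroids with HUVEC endothelial cells and mesenchymal stem cells, treated with RAS pathway inhibitor combinations. Each agent spans half-log steps from near clinical Cmax, or 10 microM where Cmax is unknown.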
# [1] = second compound 0.000949 µM, first compound 0.0316 µM
# [2] = second compound 0.000949 µM, first compound 0.1 µM
# [3] = second compound 0.000949 µM, first compound 0.316 µM
# [4] = second compound 0.000949 µM, first compound 1 µM
# [5] = second compound 0.000949 µM, first compound 3.16 µM
# [6] = second compound 0.000949 µM, first compound 10 µM
# [7] = second compound 0.003 µM, first compound 0.0316 µM
# [8] = second compound 0.003 µM, first compound 0.1 µM
# [9] = second compound 0.003 µM, first compound 0.316 µM
# [10] = second compound 0.003 µM, first compound 1 µM
# [11] = second compound 0.003 µM, first compound 3.16 µM
# [12] = second compound 0.003 µM, first compound 10 µM
# [13] = second compound 0.00949 µM, first compound 0.0316 µM
# [14] = second compound 0.00949 µM, first compound 0.1 µM
# [15] = second compound 0.00949 µM, first compound 0.316 µM
# [16] = second compound 0.00949 µM, first compound 1 µM
# [17] = second compound 0.00949 µM, first compound 3.16 µM
# [18] = second compound 0.00949 µM, first compound 10 µM
# [19] = second compound 0.03 µM, first compound 0.0316 µM
# [20] = second compound 0.03 µM, first compound 0.1 µM
# [21] = second compound 0.03 µM, first compound 0.316 µM
# [22] = second compound 0.03 µM, first compound 1 µM
# [23] = second compound 0.03 µM, first compound 3.16 µM
# [24] = second compound 0.03 µM, first compound 10 µM
# [25] = second compound 0.0949 µM, first compound 0.0316 µM
# [26] = second compound 0.0949 µM, first compound 0.1 µM
# [27] = second compound 0.0949 µM, first compound 0.316 µM
# [28] = second compound 0.0949 µM, first compound 1 µM
# [29] = second compound 0.0949 µM, first compound 3.16 µM
# [30] = second compound 0.0949 µM, first compound 10 µM
# [31] = second compound 0.3 µM, first compound 0.0316 µM
# [32] = second compound 0.3 µM, first compound 0.1 µM
# [33] = second compound 0.3 µM, first compound 0.316 µM
# [34] = second compound 0.3 µM, first compound 1 µM
# [35] = second compound 0.3 µM, first compound 3.16 µM
# [36] = second compound 0.3 µM, first compound 10 µM
# 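Also: spheroids exposed to compounds for seven days before readout.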
smiles,measurement,setting,value
NC1c2ccccc2OC12CCN(c1cnc3c(N4CCCc5ncccc54)n[nH]c3n1)CC2 (centres undefined) + CCn1c(-c2cc(N3CCN(C)CC3)cnc2C(C)OC)c2c3cc(ccc31)-c1csc(n1)CC(NC(=O)C1CC1C)C(=O)N1CCCC(N1)C(=O)OCC(C)(C)C2,IC50,second compound 0.000949 µM,< 31.6 nM
same,IC50,second compound 0.003 µM,< 31.6 nM
same,IC50,second compound 0.00949 µM,< 31.6 nM
same,IC50,second compound 0.03 µM,< 31.6 nM
same,IC50,second compound 0.0949 µM,< 31.6 nM
same,IC50,second compound 0.3 µM,< 31.6 nM
same,"viability, T/C",[1],5.69%
same,"viability, T/C",[2],3.23%
same,"viability, T/C",[3],1.88%
same,"viability, T/C",[4],1.71%
same,"viability, T/C",[5],1.35%
same,"viability, T/C",[6],0.78%
same,"viability, T/C",[7],2.74%
same,"viability, T/C",[8],1.37%
same,"viability, T/C",[9],1.06%
same,"viability, T/C",[10],0.67%
same,"viability, T/C",[11],0.28%
same,"viability, T/C",[12],0.2%
same,"viability, T/C",[13],1.78%
same,"viability, T/C",[14],1.22%
same,"viability, T/C",[15],0.77%
same,"viability, T/C",[16],0.41%
same,"viability, T/C",[17],1.43%
same,"viability, T/C",[18],0.08%
same,"viability, T/C",[19],2.14%
same,"viability, T/C",[20],1.39%
same,"viability, T/C",[21],1%
same,"viability, T/C",[22],0.36%
same,"viability, T/C",[23],0.18%
same,"viability, T/C",[24],0.1%
same,"viability, T/C",[25],1.61%
same,"viability, T/C",[26],1.57%
same,"viability, T/C",[27],0.67%
same,"viability, T/C",[28],0.17%
same,"viability, T/C",[29],0.13%
same,"viability, T/C",[30],0.29%
same,"viability, T/C",[31],1.41%
same,"viability, T/C",[32],1.04%
same,"viability, T/C",[33],0.5%
same,"viability, T/C",[34],0.27%
same,"viability, T/C",[35],0.14%
same,"viability, T/C",[36],0.1%
CC(C)NCC(C(=O)N1CCN(c2ncnc3c2C(C)CC3O)CC1)c1ccc(Cl)cc1 (centres undefined) + CCn1c(-c2cccnc2C(C)OC)c2c3cc(ccc31)N1CCOC(CC(NC(=O)C(C(C)C)N(C)C(=O)C3(F)CCN(C(=O)C#CC(C)(C)N(C)C)CC3)C(=O)N3CCCC(N3)C(=O)OCC(C)(C)C2)C1,IC50,second compound 0.000949 µM,3790 nM
same,IC50,second compound 0.003 µM,2770 nM
same,IC50,second compound 0.00949 µM,2770 nM
same,IC50,second compound 0.03 µM,2540 nM
same,IC50,second compound 0.0949 µM,2080 nM
same,IC50,second compound 0.3 µM,2140 nM
same,"viability, T/C",[1],95.4%
same,"viability, T/C",[2],93.3%
same,"viability, T/C",[3],88.2%
same,"viability, T/C",[4],66.9%
same,"viability, T/C",[5],56%
same,"viability, T/C",[6],32.1%
same,"viability, T/C",[7],104%
same,"viability, T/C",[8],106%
same,"viability, T/C",[9],85.1%
same,"viability, T/C",[10],72.2%
same,"viability, T/C",[11],46.9%
same,"viability, T/C",[12],29.4%
same,"viability, T/C",[13],102%
same,"viability, T/C",[14],95.1%
same,"viability, T/C",[15],80.8%
same,"viability, T/C",[16],65.3%
same,"viability, T/C",[17],48.4%
same,"viability, T/C",[18],31%
same,"viability, T/C",[19],100%
same,"viability, T/C",[20],85.1%
same,"viability, T/C",[21],91.4%
same,"viability, T/C",[22],66.8%
same,"viability, T/C",[23],46.2%
same,"viability, T/C",[24],29.3%
same,"viability, T/C",[25],91.2%
same,"viability, T/C",[26],86.9%
same,"viability, T/C",[27],79.2%
same,"viability, T/C",[28],59.6%
same,"viability, T/C",[29],44.8%
same,"viability, T/C",[30],29.3%
same,"viability, T/C",[31],69.4%
same,"viability, T/C",[32],78.7%
same,"viability, T/C",[33],67.2%
same,"viability, T/C",[34],59.8%
same,"viability, T/C",[35],45.3%
same,"viability, T/C",[36],27.5%
